According to EP3319936B1, “BRIDGE LINKERS FOR CONJUGATION OF CELL-BINDING MOLECULES” (priority 2015, dated 2015):

Experiments:
[1] = test system: N87 cell (Ag+); assay: In vitro cytotoxicity (MTT) assay, N87 cells; assay type: cell-based, human
Procedure: (§1) The cell lines used in the cytotoxicity assays were HL-60, a human promyelocytic leukemia cell line; NCI-N87, a human gastric carcinoma cell line; and SKOV3, a human ovarian carcinoma cell line. […] For SKOV3 cells, the cells were grown in McCoy's 5A Medium with 10% FBS. To run the assay, the cells (180 µl, 6000 cells) were added to each well in a 96-well plate and incubated for 24 hours at 37°C with 5% CO2. Next, the cells were treated with test compounds (20 µl) at various concentrations in appropriate cell culture medium (total volume, 0.2 mL). The control wells contain cells and the medium but lack the test compounds. The plates were incubated for 120 hours at 37°C with 5% CO2. MTT (5mg/ml) was then added to the wells (20 µl) and the plates were incubated for 1.5hr at 37°C. The medium was carefully removed and DMSO (180 µl) was added afterward. […] The inhibition% was calculated according to the following equation: inhibition% = [1-(assay-blank)/(control-blank)] × 100.

[2] = test system: SK-OV-3 cell (Ag+); assay: In vitro cytotoxicity (MTT) assay, SK-OV-3 cells; assay type: cell-based, human
Procedure: as §1

[3] = test system: HL60 cell (Ag-); assay: In vitro cytotoxicity (MTT) assay, HL60 cells; assay type: cell-based; details: HL-60 human promyelocytic leukemia cell line, 120 hours incubation
Procedure: as §1

## T-DM1
[1]; NCI-N87 human gastric carcinoma cell line, 120 hours incubation, MTT
  IC50: 0.266 nM
[1]; matches ratio of HL60 (Ag-) IC50 bound to N87 IC50
  Specificity for N87 cell: over 56
[2]; SKOV3 human ovarian carcinoma cell line, 120 hours incubation, MTT
  IC50: 0.177 nM
[2]; matches ratio of HL60 (Ag-) IC50 bound to SK-OV-3 IC50
  Specificity for SK-OV-3 cell: over 84
[3]
  IC50: > 15 nM
